target: hKv1.3 (Homo sapiens, UniProt P22001); test: Whole-cell patch-clamp block of Kv1.3 current in CHO cells stably expressing hKv1.3; format: cell-based; conditions: CHO cells stably expressing hKv1.3, whole-cell patch clamp; reported as ranges; read-out: IC50 (Kv1.3)
Procedure: The effectiveness of the generated compounds in blocking the Kv1.3 current was assayed on CHO cells stably expressing hKv1.3. Cells were grown in F12 Kaighns' medium supplemented with 10% fetal calf serum, 2 mM L-glutamine, 1 mM Na^+ pyruvate, 100 units/ml penicillin, 100 Fg/ml streptomycin and 500 μg/ml G418 (to keep them under selection pressure). Kv1.3 currents were measured using the whole-cell configuration of the patch-clamp technique and were evoked by 500 ms depolarising voltage pulses to +40 mV from a holding potential of −80 mV at 30 sec intervals. Cells were continuously bathed in Ringers solution containing (mM): 160 NaCl, 4.5 KCl, 2.5 CaCl2, 1 MgCl2, 10 HEPES, pH 7.4, 290-310 mOsm. The internal (pipette) solution contained (mM): 134 KF, 2 MgCl2, 10 HEPES, 10 EGTA (pH 7.2, 290-310 mOsm). Series resistance compensation (60-80%) was applied when the peak current amplitude exceeded 2 nA. Compounds initially dissolved in DMSO were diluted in bath solution (final DMSO concentration 0.5%) and applied directly to the recording chamber at increasing concentrations allowing ample time for steady state block to be achieved between each concentration. Each compound was tested at 4-5 different concentrations in triplicate. IC50 values were determined by fitting the average normalised reduction of the current integral to the Hill equation.

Chain of hKv1.3 (P22001 whole entry): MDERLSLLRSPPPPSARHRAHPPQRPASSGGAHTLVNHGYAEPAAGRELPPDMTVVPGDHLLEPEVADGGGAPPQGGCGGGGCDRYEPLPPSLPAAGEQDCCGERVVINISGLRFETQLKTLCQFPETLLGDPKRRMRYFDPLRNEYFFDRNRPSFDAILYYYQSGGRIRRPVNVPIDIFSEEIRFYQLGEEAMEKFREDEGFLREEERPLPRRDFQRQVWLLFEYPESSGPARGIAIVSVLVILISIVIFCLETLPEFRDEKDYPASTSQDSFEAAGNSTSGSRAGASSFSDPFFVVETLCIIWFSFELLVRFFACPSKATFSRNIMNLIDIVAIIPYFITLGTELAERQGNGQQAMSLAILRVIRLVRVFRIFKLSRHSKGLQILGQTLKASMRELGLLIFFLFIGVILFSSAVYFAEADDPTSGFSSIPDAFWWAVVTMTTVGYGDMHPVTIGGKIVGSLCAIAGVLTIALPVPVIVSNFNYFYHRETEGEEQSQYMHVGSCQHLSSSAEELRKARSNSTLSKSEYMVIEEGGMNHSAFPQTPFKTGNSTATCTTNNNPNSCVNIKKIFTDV

| Structure (SMILES) | IC50 [nM] |
| --- | --- |
| CCN(CC)CCOc1c(C(C)=O)c(C)c2nc(C)oc2c1OCCC(C)c1ccc(F)cc1 (stereo not drawn) [Example 20, 5-Acetyl-6-(2-diethylamino-ethoxy)-7-[3-(4-fluorophenyl)butoxy]-2,4-dimethyl-benzooxazole] | 200 to 1000 |
| CC(=O)c1c(OCCN2CCS(=O)(=O)CC2)c(OCCC(C)c2ccc(F)cc2)c2oc(C)nc2c1C (stereo not drawn) [Example 15, 5-Acetyl-6-[2-(1,1-dioxo-thiomorpholin-4-yl)-ethoxy]-7-[3-(4-fluorophenyl)butoxy]-2,4-dimethyl-benzooxazole] | < 50 |
| Cc1nc2c(C)c(C(C)O)c(OCCN3CCSCC3)c(OCCC(C)c3ccc(F)cc3)c2o1 (stereo not drawn) [Example 27, 4-(1-Hydroxyethyl)-7-[3-(4-fluorophenyl)butoxy]-2,4-dimethyl-6-(2-thiomorpholin-4-ylethoxy)-benzo[d]oxazole] | < 50 |
| CC(=O)c1c(OCCN2CCOCC2)c(OCCC(C)c2ccc(F)cc2)c2oc(C(C)C)nc2c1C (stereo not drawn) [Example 32c, 5-Acetyl-7-[3-(4-fluorophenyl)butoxy]-2-isopropyl-4-methyl-6-(2-morpholin-4-O-ethoxy)-benzo[d]oxazole] | < 50 |
| CC(=O)c1c(OCCN2CCN(C)CC2)c(OCCC(C)c2ccc(F)cc2)c2oc(C)nc2c1C (stereo not drawn) [Example 25] | 200 to 1000 |
| CC(=O)c1c(OCCN2CC[S+]([O-])CC2)c(OCCC(C)c2ccc(F)cc2)c2oc(C)nc2c1C (stereo not drawn) [Example 14, 5-Acetyl-7-[3-(4-fluorophenyl)butoxy]-2,4-dimethyl-6-[2-(1-oxo-thiomorpholin-4-yl)-ethoxy]-benzooxazole] | 50 to 200 |
| CC(=O)c1c(OCCn2ccnc2C)c(OCCC(C)c2ccc(F)cc2)c2oc(C)nc2c1C (stereo not drawn) [Example 16, 5-Acetyl-7-[3-(4-fluorophenyl)butoxy]-2,4-dimethyl-6-[2-(2-methylimidazol-1-yl)-ethoxy]-benzooxazole] | 50 to 200 |
| CC(=O)c1c(OCCN2CCCC(F)(F)C2)c(OCCC(C)c2ccc(F)cc2)c2oc(C)nc2c1C (stereo not drawn) [Example 43, 5-Acetyl-7-[3-(4-fluorophenyl)butoxy]-6-[2-(3,3-difluoropiperidin-1-yl)-ethoxy]-2,4-dimethyl-benzooxazole] | < 50 |
| CC(=O)c1c(OCCN2CCCC(F)(F)C2)c(OCCC(C)c2ccc(F)cc2)c2oc(C(C)C)nc2c1C (stereo not drawn) [Example 33b, 5-Acetyl-6-[2-(3,3-difluoropiperidin-1-yl)ethoxy]-7-[3-(4-fluorophenyl)butoxy]-2-isopropyl-4-methylbenzo[d]oxazole] | 50 to 200 |
| CC(=O)c1c(OC2CN(C3CCCC3)C2)c(OCCC(C)c2ccc(F)cc2)c2oc(C)nc2c1C (stereo not drawn) [Example 41b] | 50 to 200 |
| CC(=O)c1c(OCCN2CCC(C)(O)CC2)c(OCCC(C)c2ccc(F)cc2)c2oc(C)nc2c1C (stereo not drawn) [Example 19, 5-Acetyl-7-[3-(4-fluorophenyl)butoxy]-6-[2-(4-hydroxy-4-methyl-piperidin-1-yl)-ethoxy]-2,4-dimethyl-benzooxazole] | 50 to 200 |
| CC(=O)c1c(OCCN2CCCC(F)(F)C2)c(OCCC(C)c2ccc(F)cc2)c2oc(C)nc2c1Cl (stereo not drawn) [Example 39, 5-Acetyl-4-chloro-7-(3-(4-fluorophenyl)butoxy)-6-(2-(3,3-difluoropiperidin-1-yl)ethoxy)-2-methyl-benzo[d]oxazole] | 50 to 200 |
| CC(=O)c1c(OCCN(C)C)c(OCCC(C)c2ccc(F)cc2)c2oc(C)nc2c1C (stereo not drawn) [Example 7, 5-Acetyl-6-(2-dimethylaminoethoxy)-7-[3-(4-fluorophenyl)butoxy]-2,4-dimethyl-benzooxazole] | 200 to 1000 |
| CC(=O)c1c(OCCN2CCOCC2)c(OCCC(C)c2ccc(F)cc2)c2oc(C(F)F)nc2c1C (stereo not drawn) [Example 30c, 5-Acetyl-7-[3-(4-fluorophenyl)butoxy]-6-(2-morphin-4-yl-ethoxy)-4-methyl-2-difluoromethyl-benzo[d]oxazole] | 50 to 200 |
| CC(=O)c1c(OCCc2cccc[n+]2[O-])c(OCCC(C)c2ccc(F)cc2)c2oc(C)nc2c1C (stereo not drawn) [Example 9, 2-(2-(5-acetyl-7-(3-(4-fluorophenyl)butoxy)-2,4-dimethylbenzo[d]oxazol-6-yloxy)ethyl)pyridine 1-oxide] | 200 to 1000 |

Reference: patent US8507539B2, “Potassium channel blockers and uses thereof” (Bionomics Limited, priority 2008, dated 2013)
